Data set [1] addresses Ephrin type-B receptor 1 (Homo sapiens) (UniProt P54762). The data set is described as follows: Inhibition of EPHB1 (unknown origin) at 0.49 uM relative to control.
Data set [2] addresses T1, Serine/threonine-protein kinase D2 (Homo sapiens) (UniProt Q9BZL6).
T1 sequence (whole entry): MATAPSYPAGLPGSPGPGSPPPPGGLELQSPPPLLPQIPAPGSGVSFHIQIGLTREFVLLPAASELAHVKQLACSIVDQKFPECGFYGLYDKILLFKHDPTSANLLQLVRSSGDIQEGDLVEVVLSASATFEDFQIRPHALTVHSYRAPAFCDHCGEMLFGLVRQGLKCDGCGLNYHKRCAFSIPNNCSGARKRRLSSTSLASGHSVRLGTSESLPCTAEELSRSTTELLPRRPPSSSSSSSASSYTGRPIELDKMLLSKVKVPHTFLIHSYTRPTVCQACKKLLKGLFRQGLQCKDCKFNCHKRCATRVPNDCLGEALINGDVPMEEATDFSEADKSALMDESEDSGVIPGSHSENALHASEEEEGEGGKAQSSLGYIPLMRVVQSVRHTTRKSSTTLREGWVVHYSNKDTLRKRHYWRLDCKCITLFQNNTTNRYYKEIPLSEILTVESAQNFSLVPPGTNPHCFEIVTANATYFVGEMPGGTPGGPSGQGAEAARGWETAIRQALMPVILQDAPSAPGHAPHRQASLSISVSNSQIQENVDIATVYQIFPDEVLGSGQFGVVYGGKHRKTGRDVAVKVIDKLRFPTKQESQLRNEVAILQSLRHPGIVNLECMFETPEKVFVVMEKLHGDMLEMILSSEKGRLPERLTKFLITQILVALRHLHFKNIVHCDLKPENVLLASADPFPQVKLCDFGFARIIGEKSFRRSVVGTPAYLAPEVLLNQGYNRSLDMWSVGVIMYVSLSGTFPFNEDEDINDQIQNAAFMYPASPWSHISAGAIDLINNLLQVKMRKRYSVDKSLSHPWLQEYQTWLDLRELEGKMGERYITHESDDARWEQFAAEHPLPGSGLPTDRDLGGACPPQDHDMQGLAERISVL
The data set is described as follows: Inhibition of PKD2 (unknown origin) at 0.49 uM relative to control.

The target of data set [3] is Cyclin-dependent kinase 2 (Homo sapiens) (UniProt P24941). The data set is described as follows: Inhibition of CDK2 (unknown origin) at 0.49 uM relative to control.
Data set [4] has as its system Mast/stem cell growth factor receptor Kit (Homo sapiens), P10721 [T670I]. The experiment in a line: Inhibition of KIT T670I mutant (unknown origin) at 0.49 uM relative to control.
Data set [5] has as its target Fibroblast growth factor receptor 2 (Homo sapiens) (UniProt P21802). The data set is described as follows: Inhibition of FGFR2 (unknown origin) at 0.49 uM relative to control.
In data set [6] the target is Tyrosine-protein kinase Fgr (Homo sapiens) (UniProt P09769). The experiment in a line: Inhibition of FGR (unknown origin) at 0.49 uM relative to control.
Data set [7] has as its target MAP/microtubule affinity-regulating kinase 4 (Homo sapiens) (UniProt Q96L34). The experiment in a line: Inhibition of MARK4 (unknown origin) at 0.49 uM relative to control.
The target in data set [8] is Serine/threonine-protein kinase Nek6 (Homo sapiens) (UniProt Q9HC98). The experiment in a line: Inhibition of NEK6 (unknown origin) at 0.49 uM relative to control.
Serine/threonine-protein kinase Nek6 (Homo sapiens), sequence (Q9HC98 whole entry): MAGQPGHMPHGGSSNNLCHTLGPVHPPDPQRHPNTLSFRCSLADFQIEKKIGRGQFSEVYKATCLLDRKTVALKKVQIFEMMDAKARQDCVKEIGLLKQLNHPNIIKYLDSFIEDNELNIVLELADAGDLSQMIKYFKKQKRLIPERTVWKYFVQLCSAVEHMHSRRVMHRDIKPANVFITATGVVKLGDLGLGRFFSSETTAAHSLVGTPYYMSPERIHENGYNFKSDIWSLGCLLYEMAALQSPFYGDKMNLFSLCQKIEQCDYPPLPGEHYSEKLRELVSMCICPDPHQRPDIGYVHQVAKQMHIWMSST
Data set [9] addresses Fibroblast growth factor receptor 1 (Homo sapiens) (UniProt P11362). The experiment in a line: Inhibition of FGFR1 (unknown origin) at 0.49 uM relative to control.
Data set [10] concerns the target Tyrosine-protein kinase JAK3 (Homo sapiens) (UniProt P52333). The data set is described as follows: Inhibition of JAK3 (unknown origin) at 0.49 uM relative to control.
The target in data set [11] is Insulin receptor (Homo sapiens) (UniProt P06213). The experiment in a line: Inhibition of INSR (unknown origin) at 0.078 uM relative to control.
Data set [12] has as its target Calcium/calmodulin-dependent protein kinase type II subunit beta (Homo sapiens) (UniProt Q13554). The experiment in a line: Inhibition of CAMK2 (unknown origin) at 0.078 uM relative to control.
In data set [13] the target is Tyrosine-protein kinase BTK (Homo sapiens) (UniProt Q06187). The experiment in a line: Inhibition of BTK (unknown origin) at 0.078 uM relative to control.
Tyrosine-protein kinase BTK (Homo sapiens), sequence (Q06187 whole entry): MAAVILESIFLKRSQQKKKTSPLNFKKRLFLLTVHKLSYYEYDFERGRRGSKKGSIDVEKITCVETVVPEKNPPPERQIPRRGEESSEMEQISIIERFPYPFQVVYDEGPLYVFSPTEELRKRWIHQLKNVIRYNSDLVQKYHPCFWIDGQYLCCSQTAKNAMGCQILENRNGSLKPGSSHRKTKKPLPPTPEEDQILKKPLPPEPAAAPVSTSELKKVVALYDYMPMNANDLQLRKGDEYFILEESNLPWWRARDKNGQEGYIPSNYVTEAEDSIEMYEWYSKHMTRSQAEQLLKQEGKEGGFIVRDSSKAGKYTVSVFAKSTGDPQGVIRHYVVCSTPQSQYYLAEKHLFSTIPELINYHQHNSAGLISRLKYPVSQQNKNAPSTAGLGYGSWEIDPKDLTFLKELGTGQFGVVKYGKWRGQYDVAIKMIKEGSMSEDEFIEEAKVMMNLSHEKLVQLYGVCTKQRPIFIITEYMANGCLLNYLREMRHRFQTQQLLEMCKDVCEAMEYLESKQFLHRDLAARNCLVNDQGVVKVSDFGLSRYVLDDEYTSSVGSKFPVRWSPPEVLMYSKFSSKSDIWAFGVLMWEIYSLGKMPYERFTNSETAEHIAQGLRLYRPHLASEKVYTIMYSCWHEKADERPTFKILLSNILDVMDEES
Data set [14] can be described thus: Unbound fraction in po dosed C57BL/6J mouse plasma by LC-MS/MS analysis. The format is ADME, organism-based.
Data set [15] addresses T2, Calcium/calmodulin-dependent protein kinase type IV (Homo sapiens) (UniProt Q16566).
T2 sequence (whole entry): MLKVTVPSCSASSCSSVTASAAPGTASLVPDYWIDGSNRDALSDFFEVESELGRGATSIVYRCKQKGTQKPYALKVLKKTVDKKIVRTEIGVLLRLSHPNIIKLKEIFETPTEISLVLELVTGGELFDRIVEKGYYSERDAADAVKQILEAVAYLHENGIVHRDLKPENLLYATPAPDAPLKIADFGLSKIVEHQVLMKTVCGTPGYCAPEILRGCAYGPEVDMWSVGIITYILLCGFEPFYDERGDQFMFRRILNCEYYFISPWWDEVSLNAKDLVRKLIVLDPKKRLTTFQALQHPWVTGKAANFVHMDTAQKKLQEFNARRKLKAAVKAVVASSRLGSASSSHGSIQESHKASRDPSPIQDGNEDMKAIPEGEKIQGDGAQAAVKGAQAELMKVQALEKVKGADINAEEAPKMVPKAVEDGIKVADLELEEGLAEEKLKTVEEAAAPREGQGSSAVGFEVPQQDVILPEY
The experiment in a line: Inhibition of CAMK4 (unknown origin) at 0.078 uM relative to control.

For data set [16], the system named is Proto-oncogene tyrosine-protein kinase receptor Ret (Homo sapiens), P07949 [Y791F]. The experiment in a line: Inhibition of RET Y791F mutant (unknown origin) at 0.45 uM relative to control.
Proto-oncogene tyrosine-protein kinase receptor Ret (Homo sapiens), P07949 [Y791F], sequence (P07949 whole entry Y791F, canonical isoform): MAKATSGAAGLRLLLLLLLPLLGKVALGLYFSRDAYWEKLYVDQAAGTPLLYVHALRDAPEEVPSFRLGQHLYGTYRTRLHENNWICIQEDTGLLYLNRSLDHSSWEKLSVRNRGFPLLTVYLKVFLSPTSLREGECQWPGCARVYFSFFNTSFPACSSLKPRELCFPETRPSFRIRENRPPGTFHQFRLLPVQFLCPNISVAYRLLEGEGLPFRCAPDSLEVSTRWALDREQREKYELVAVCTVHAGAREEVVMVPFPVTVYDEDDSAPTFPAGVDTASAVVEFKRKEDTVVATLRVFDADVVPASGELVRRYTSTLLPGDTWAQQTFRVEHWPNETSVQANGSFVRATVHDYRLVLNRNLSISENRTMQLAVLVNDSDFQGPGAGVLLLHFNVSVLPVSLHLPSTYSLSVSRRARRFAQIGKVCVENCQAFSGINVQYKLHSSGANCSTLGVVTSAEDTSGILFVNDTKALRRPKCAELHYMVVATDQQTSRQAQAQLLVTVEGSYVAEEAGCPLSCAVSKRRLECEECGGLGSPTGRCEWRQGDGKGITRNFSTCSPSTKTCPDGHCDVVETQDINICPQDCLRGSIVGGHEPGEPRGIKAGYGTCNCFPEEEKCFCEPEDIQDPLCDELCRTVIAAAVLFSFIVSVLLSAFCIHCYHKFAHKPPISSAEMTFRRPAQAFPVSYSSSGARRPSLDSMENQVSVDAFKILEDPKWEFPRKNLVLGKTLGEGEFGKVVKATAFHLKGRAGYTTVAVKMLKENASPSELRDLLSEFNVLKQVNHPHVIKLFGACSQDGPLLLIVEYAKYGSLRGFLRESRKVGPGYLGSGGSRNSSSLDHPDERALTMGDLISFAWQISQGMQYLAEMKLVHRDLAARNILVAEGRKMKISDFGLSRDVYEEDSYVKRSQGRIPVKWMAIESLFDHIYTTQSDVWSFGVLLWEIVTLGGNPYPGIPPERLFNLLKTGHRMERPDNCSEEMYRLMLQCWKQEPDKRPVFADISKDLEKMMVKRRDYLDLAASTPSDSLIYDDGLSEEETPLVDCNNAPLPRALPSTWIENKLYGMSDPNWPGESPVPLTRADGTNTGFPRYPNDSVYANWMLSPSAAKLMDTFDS
Data set [17] has as its target Casein kinase I isoform alpha (Homo sapiens) (UniProt P48729). The data set is described as follows: Inhibition of CSNK1A1 (unknown origin) at 0.45 uM relative to control.
Data set [18] deals with Mitogen-activated protein kinase 14 (Homo sapiens), Q16539 [T106M]. The experiment in a line: Inhibition of SAPK2a T106M mutant (unknown origin) at 0.45 uM relative to control.
The target of data set [19] is Tyrosine-protein kinase Fer (Homo sapiens) (UniProt P16591). The data set is described as follows: Inhibition of Fer (unknown origin) at 0.45 uM relative to control.
For data set [20], the target named is Mitogen-activated protein kinase kinase kinase kinase 4 (Homo sapiens) (UniProt O95819). The data set is described as follows: Inhibition of HGK (unknown origin) at 0.45 uM relative to control.
Data set [21] has as its target Serine/threonine-protein kinase PAK 2 (Homo sapiens) (UniProt Q13177). The data set is described as follows: Inhibition of PAK2 (unknown origin) at 0.45 uM relative to control.
Data set [22] concerns the target Mitogen-activated protein kinase 12 (Homo sapiens) (UniProt P53778). The data set is described as follows: Inhibition of p38-gamma (unknown origin) at 0.45 uM relative to control.

Each structure is given as a SMILES string.

By inhibition is commonly meant the relative decrease from the control value, in per cent. One may read the fraction unbound as the share of the substance not bound to proteins or other matrix. The low end stands for extensive binding, the high end for weak binding.

Serine/threonine-protein kinase PAK 2 (Homo sapiens), sequence (Q13177 whole entry): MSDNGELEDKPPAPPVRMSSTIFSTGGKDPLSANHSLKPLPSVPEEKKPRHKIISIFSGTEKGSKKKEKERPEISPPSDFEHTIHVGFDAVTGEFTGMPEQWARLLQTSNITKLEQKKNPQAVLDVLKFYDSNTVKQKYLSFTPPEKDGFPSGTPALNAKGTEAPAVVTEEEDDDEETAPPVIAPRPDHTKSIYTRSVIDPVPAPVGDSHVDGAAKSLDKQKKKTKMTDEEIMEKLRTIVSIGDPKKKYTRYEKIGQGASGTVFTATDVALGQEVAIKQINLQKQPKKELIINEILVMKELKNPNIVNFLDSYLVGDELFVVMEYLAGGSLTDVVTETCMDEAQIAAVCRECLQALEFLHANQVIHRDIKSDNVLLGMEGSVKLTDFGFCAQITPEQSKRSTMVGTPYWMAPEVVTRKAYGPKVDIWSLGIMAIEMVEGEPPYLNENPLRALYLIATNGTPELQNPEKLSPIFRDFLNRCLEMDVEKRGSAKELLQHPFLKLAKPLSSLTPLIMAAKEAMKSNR
Fibroblast growth factor receptor 2 (Homo sapiens), sequence (P21802 22-821 limits assumed): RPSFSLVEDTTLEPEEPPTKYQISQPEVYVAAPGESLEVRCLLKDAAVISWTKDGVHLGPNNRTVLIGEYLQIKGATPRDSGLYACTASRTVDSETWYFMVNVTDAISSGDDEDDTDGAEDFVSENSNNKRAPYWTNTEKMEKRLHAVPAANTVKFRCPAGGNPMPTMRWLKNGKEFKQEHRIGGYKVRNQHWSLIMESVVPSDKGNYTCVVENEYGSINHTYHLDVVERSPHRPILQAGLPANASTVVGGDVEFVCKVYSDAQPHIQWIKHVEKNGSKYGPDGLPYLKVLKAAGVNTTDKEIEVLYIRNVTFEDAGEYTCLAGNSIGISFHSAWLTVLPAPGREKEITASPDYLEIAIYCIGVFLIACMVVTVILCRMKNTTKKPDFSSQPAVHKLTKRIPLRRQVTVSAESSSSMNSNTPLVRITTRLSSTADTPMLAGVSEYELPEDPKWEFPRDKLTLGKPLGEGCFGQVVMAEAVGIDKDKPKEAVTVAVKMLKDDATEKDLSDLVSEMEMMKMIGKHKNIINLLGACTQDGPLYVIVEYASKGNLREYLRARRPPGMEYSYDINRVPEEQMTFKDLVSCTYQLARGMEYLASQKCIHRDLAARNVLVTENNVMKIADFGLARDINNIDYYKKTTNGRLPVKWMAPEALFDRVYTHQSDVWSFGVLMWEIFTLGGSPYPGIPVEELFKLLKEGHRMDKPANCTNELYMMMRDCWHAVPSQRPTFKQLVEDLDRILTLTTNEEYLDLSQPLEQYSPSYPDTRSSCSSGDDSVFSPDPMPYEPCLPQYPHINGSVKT
Calcium/calmodulin-dependent protein kinase type II subunit beta (Homo sapiens), sequence (Q13554 whole entry): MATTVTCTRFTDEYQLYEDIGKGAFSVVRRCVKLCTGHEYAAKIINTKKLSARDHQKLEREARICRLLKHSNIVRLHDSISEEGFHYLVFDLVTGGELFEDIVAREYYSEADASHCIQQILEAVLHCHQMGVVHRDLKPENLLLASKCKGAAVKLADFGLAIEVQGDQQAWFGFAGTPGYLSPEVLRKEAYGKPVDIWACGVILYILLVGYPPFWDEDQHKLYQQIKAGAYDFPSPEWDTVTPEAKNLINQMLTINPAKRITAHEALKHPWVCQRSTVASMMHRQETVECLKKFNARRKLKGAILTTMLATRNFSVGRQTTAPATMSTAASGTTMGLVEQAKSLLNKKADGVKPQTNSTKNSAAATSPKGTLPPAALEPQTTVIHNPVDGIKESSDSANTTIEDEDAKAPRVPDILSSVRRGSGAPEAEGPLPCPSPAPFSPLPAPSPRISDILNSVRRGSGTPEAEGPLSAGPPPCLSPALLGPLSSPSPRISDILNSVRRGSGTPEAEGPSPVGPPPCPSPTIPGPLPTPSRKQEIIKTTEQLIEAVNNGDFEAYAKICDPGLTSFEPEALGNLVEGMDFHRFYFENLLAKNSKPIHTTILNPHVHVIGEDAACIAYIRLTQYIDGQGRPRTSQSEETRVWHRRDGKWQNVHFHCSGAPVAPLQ
MAP/microtubule affinity-regulating kinase 4 (Homo sapiens), sequence (Q96L34 whole entry): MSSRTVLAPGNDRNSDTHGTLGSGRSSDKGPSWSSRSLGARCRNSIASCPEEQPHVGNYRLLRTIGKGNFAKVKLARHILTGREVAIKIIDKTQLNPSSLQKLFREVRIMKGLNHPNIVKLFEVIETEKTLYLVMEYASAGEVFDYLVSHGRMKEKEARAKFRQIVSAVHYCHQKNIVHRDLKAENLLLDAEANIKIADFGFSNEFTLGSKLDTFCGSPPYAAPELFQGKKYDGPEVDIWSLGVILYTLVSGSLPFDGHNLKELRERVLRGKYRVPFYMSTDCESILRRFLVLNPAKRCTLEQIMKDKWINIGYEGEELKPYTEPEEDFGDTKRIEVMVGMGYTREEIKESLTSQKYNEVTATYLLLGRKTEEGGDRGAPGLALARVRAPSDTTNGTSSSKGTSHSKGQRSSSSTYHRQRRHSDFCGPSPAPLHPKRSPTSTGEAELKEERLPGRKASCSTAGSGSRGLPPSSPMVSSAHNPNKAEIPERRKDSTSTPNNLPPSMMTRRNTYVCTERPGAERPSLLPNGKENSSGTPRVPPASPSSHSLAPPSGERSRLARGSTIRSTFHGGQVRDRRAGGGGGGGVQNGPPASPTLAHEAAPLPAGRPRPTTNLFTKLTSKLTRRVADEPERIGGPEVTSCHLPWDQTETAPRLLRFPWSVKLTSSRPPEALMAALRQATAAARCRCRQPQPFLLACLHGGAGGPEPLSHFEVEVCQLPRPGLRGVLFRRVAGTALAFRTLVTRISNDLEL

Take `Cc1[nH]nc(C2CC2)c1-c1ccc2c(NC(=O)C3CC3)noc2c1`: the inhibition is 1.3% in [1]; 7.7% in [2]; 1.3% in data set [3]; -1.7% in data set [4]; -0.7% in data set [5]; -4% in data set [6]. Besides, the inhibition in data set [7] was 8.7%; in data set [8] it was 2.7%; in [9], 0.7%; in data set [10], -7.3%.

Turning to `COC(=O)Nc1noc2cc(-c3c(-c4ccccn4)n[nH]c3C)ccc12`, the inhibition was 1.7% in data set [11], 3.7% in data set [12], 7.7% in data set [13] and 6.7% in data set [15]. This compound also gave a fraction unbound in [14] of 0.17.

Turning to `Cc1n[nH]c(C)c1-c1ccc2c(NC(=O)c3ccc(N4CCN(C)CC4)cc3)n[nH]c2c1`, the inhibition in data set [16] was 58.7%; in data set [17], 2.3%; in data set [18], 1.3%; in data set [19], 2.3%; in data set [20], 73.3%; in data set [21], -2.7%. Further, the inhibition in data set [22] worked out at 0%.

Values taken from ChEMBL document CHEMBL4052759, “Discovery of DS79182026: A potent orally active hepcidin production inhibitor” (Bioorg Med Chem Lett, 2017).
